These results are taken from ChEMBL document CHEMBL4725228, “An aza-nucleoside, fragment-like inhibitor of the DNA repair enzyme alkyladenine glycosylase (AAG)” (Bioorg Med Chem, 2020).

Activity calls are given as the source filed them. The rule behind the calls is not given here.

One may read the IC50 as the concentration at which inhibition is half-maximal. Low readings indicate higher potency, high ones lower potency.

In the test the target is DNA-3-methyladenine glycosylase (Homo sapiens, UniProt P29372). Put plainly: Inhibition of human AAG using HXO2/Loop01 oligonucleotide as substrate incubated for 2 hrs by colorimetric based microplate assay.
DNA-3-methyladenine glycosylase, sequence (P29372 whole entry): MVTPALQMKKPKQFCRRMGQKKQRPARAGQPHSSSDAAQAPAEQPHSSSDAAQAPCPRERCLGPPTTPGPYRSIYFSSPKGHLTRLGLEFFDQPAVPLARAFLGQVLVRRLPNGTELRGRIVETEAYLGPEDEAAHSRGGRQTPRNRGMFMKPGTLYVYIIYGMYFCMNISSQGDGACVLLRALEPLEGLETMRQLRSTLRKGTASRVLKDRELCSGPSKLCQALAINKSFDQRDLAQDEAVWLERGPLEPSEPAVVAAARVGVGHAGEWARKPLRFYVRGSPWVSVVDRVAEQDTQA

Take `OC[C@H]1CN(Cc2ccccn2)C[C@@H]1O`: the inhibition entry was “Active”. Still for that read-out and setting: under `OC[C@H]1CN(Cc2cccnc2)C[C@@H]1O` stands “Active”. Same read-out and setting: for `OC[C@H]1CN(Cc2ncc[nH]2)C[C@@H]1O` the value was “Active”.

For the compound `OC[C@H]1CN(Cc2c[nH]cn2)C[C@@H]1O`, the IC50 was 157 µM. Turning to `OC[C@H]1CN(Cc2ccncc2)C[C@@H]1O`, the inhibition result was “Active”.
